The supplement of paper PMC10307832

What was measured:
Experiment in all cases: relative viability (nuclei count vs DMSO), 5 days (fraction); higher = more cells survive
Olaparib + Foretinib = compound: O=C(c1cc(Cc2n[nH]c(=O)c3ccccc23)ccc1F)N1CCN(C(=O)C2CC2)CC1 [Olaparib] + COc1cc2c(Oc3ccc(NC(=O)C4(C(=O)Nc5ccc(F)cc5)CC4)cc3F)ccnc2cc1OCCCN1CCOCC1 [Foretinib] (partner 0.25 µM)
Outline: (§1)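 Values are medians from duplicate plates. Each reflects relative viability, defined as the nuclei count of treated wells over that of vehicle wells. Lung cancer cell lines in 1536-well plates were pin-tool dosed one day after seeding with one drug alone or with a fixed anchor-drug dose plus five library-drug doses (not always all listed) in √10 steps, then fixed, stained and imaged at 4× after 5 days.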

Carfilzomib + Navitoclax = compound: CC(C)C[C@H](NC(=O)[C@H](CCc1ccccc1)NC(=O)CN1CCOCC1)C(=O)N[C@@H](Cc1ccccc1)C(=O)N[C@@H](CC(C)C)C(=O)[C@@]1(C)CO1 [Carfilzomib] + CC1(C)CCC(c2ccc(Cl)cc2)=C(CN2CCN(c3ccc(C(=O)NS(=O)(=O)c4ccc(N[C@H](CCN5CCOCC5)CSc5ccccc5)c(S(=O)(=O)C(F)(F)F)c4)cc3)CC2)C1 [Navitoclax] (partner 0.5 µM)
Outline: as §1

Carfilzomib + Pemetrexed = compound: CC(C)C[C@H](NC(=O)[C@H](CCc1ccccc1)NC(=O)CN1CCOCC1)C(=O)N[C@@H](Cc1ccccc1)C(=O)N[C@@H](CC(C)C)C(=O)[C@@]1(C)CO1 [Carfilzomib] + Nc1nc2[nH]cc(CCc3ccc(C(=O)N[C@@H](CCC(=O)O)C(=O)O)cc3)c2c(=O)[nH]1 [Pemetrexed] (partner 0.2 µM)
Outline: as §1

Carfilzomib + Foretinib = compound: CC(C)C[C@H](NC(=O)[C@H](CCc1ccccc1)NC(=O)CN1CCOCC1)C(=O)N[C@@H](Cc1ccccc1)C(=O)N[C@@H](CC(C)C)C(=O)[C@@]1(C)CO1 [Carfilzomib] + COc1cc2c(Oc3ccc(NC(=O)C4(C(=O)Nc5ccc(F)cc5)CC4)cc3F)ccnc2cc1OCCCN1CCOCC1 [Foretinib] (partner 0.25 µM)
Outline: as §1

Row | Cell Line | relative viability (Olaparib + Foretinib; first compound 0.08 µM) | relative viability (Olaparib + Foretinib; first compound 0.253 µM) | relative viability (Olaparib + Foretinib; first compound 2.53 µM) | relative viability (Olaparib + Foretinib; first compound 8 µM) | relative viability (Carfilzomib + Navitoclax; first compound 0.003162 µM) | relative viability (Carfilzomib + Navitoclax; first compound 0.01 µM) | relative viability (Carfilzomib + Navitoclax; first compound 0.03162 µM) | relative viability (Carfilzomib + Navitoclax; first compound 0.1 µM) | relative viability (Carfilzomib + Pemetrexed; first compound 0.001 µM) | relative viability (Carfilzomib + Pemetrexed; first compound 0.003162 µM) | relative viability (Carfilzomib + Pemetrexed; first compound 0.01 µM) | relative viability (Carfilzomib + Pemetrexed; first compound 0.03162 µM) | relative viability (Carfilzomib + Pemetrexed; first compound 0.1 µM) | relative viability (Carfilzomib + Foretinib; first compound 0.003162 µM) | relative viability (Carfilzomib + Foretinib; first compound 0.01 µM) | relative viability (Carfilzomib + Foretinib; first compound 0.03162 µM) | relative viability (Carfilzomib + Foretinib; first compound 0.1 µM) | relative viability (Carfilzomib + Navitoclax; first compound 0.001 µM) | relative viability (Carfilzomib + Foretinib; first compound 0.001 µM)
1 | NCI-H2405 | 1.11 | 1.01 | 0.946 | 0.956 | 1.26 | 1.04 | 0.108 | 0.092 | 1.02 | 1.14 | 1.04 | 0.898 | 0.205 | 1.06 | 1.07 | 1.07 | 0.305 | – | –
2 | NCI-H3122 | 0.895 | 0.946 | 0.873 | 0.781 | 1.07 | 1.05 | 0.992 | 0.672 | 0.194 | 0.198 | 0.207 | 0.189 | 0.154 | 0.992 | 0.92 | 0.781 | 0.318 | 1.03 | 0.948
3 | PC-3 [JPC-3] | 1.03 | 0.948 | 0.985 | 0.948 | 0.84 | 0.761 | 0.705 | 0.138 | 1.04 | 1.1 | 1.23 | 0.642 | 0.294 | 1.01 | 1.05 | 0.889 | 0.279 | 0.74 | 1.02
4 | PC-14 | 1.06 | 0.892 | 0.903 | 0.684 | 1.05 | 1.05 | 0.133 | 0.0977 | 0.145 | 0.14 | 0.197 | 0.0596 | 0.0657 | 0.958 | 0.996 | 0.826 | 0.081 | 1 | 0.979
5 | RERF-LC-KJ | 0.922 | 0.797 | 1 | 0.919 | 1.13 | 0.608 | 0.218 | 0.252 | 0.444 | 0.51 | 0.489 | 0.368 | 0.248 | 0.86 | 0.886 | 0.794 | 0.409 | 0.972 | 0.873
6 | SK-LU-1 | 0.91 | 0.657 | 0.748 | 0.526 | 0.896 | 0.286 | 0.0872 | 0.0846 | 0.946 | 1.03 | 0.978 | 0.258 | 0.182 | 0.857 | 0.919 | 0.116 | 0.124 | 0.77 | 0.838
7 | SK-MES-1 | 1.05 | 0.861 | 0.907 | 0.889 | 1.25 | 1.26 | 0.416 | 0.172 | 1.02 | 1.1 | 1.14 | 0.786 | 0.177 | 0.954 | 0.918 | 0.97 | 0.283 | 1.29 | 0.851
8 | SW 1573 | 1.01 | 0.971 | 0.737 | 0.629 | 1.11 | 0.8 | 0.0728 | 0.0538 | 0.809 | 0.927 | 0.613 | 0.071 | 0.0521 | 1.27 | 0.884 | 0.725 | 0.0812 | 1.06 | 0.934
9 | UMC-11 | 0.893 | 0.959 | 0.784 | 0.484 | 0.326 | 0.332 | 0.269 | 0.103 | 0.803 | 0.928 | 0.881 | 0.652 | 0.251 | 1.05 | 1.06 | 0.944 | 0.299 | 0.278 | 0.996
